Here are results for nine molecules from the supplement of paper PMC10307832.

Structures are written as SMILES.

Common to all, as to assay: relative viability (nuclei count vs DMSO), 5 days (fraction); higher = more cells survive
The test system of one test is NCI-H1299. An outline of the steps:
(§1)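 Lung cancer cell lines, seeded in 1536-well plates, were treated the following day by pin tool with a single drug or with five library-drug doses (not always all listed) in √10 steps on top of a fixed anchor-drug dose. Cells were fixed and nuclei stained in one step after 5 days, and nuclei were counted. Relative viability is the nuclei count for treated wells divided by that for vehicle wells, reported as medians of duplicate plates.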

Another test concerns NCI-H1703. An outline of the steps: as §1
The subject of the next test is Calu-6. An outline of the steps:
as §1

The next test concerns A549. An outline of the steps:
as §1

In a further test the test system is NCI-H1648. An outline of the steps:
as §1

Another test has as its system NCI-H1623. An outline of the steps: as §1

Consider `CCCCCCCCCCCC1=C(O)C(=O)C=C(O)C1=O` [Embelin] + CC1(C)CCC(c2ccc(Cl)cc2)=C(CN2CCN(c3ccc(C(=O)NS(=O)(=O)c4ccc(N[C@H](CCN5CCOCC5)CSc5ccccc5)c(S(=O)(=O)C(F)(F)F)c4)cc3)CC2)C1 [Navitoclax] (partner 0.5 µM), for which the relative viability with NCI-H1299 (first compound 0.08 µM) worked out at 1.09; with NCI-H1299 (first compound 0.8 µM), 1.1; with NCI-H1299 (first compound 2.53 µM), 1.09; in the test on NCI-H1299 (first compound 8 µM) it was 1.02; in the test with NCI-H1703 (first compound 0.08 µM), 1.29; with NCI-H1703 (first compound 0.8 µM), 1.26. Besides, the relative viability in the test on NCI-H1703 (first compound 2.53 µM) was found to be 1.06; in the test on NCI-H1703 (first compound 8 µM) it was 1.06; with Calu-6 (first compound 0.08 µM), 0.837; in the test with Calu-6 (first compound 0.8 µM), 1.01; in the test on Calu-6 (first compound 2.53 µM), 0.904; in the test on Calu-6 (first compound 8 µM), 0.831. The relative viability in the test on A549 (first compound 0.08 µM) was 1.21; in the test with A549 (first compound 0.8 µM), 1.35; with A549 (first compound 2.53 µM), 1.21; in the test with A549 (first compound 8 µM), 1.3.
`CCCCCCCCCCCC1=C(O)C(=O)C=C(O)C1=O` [Embelin] + CC(=O)Nc1cccc(-n2c(=O)n(C3CC3)c(=O)c3c(Nc4ccc(I)cc4F)n(C)c(=O)c(C)c32)c1 [Trametinib] (partner 0.02 µM): the relative viability in the test with NCI-H1648 (first compound 0.08 µM) was 0.53; in the test on NCI-H1648 (first compound 0.8 µM), 0.572; in the test with NCI-H1648 (first compound 2.53 µM) it was 0.524; in the test on NCI-H1648 (first compound 8 µM) it was 0.596.
The like results for `CCCCCCCCCCCC1=C(O)C(=O)C=C(O)C1=O` [Embelin] + CC(=O)c1c(C)c2cnc(Nc3ccc(N4CCNCC4)cn3)nc2n(C2CCCC2)c1=O [Palbociclib] (partner 0.5 µM) were, in that order, 0.205, 0.23, 0.241 and 0.297.
Take `CCCCCCCCCCCC1=C(O)C(=O)C=C(O)C1=O` [Embelin] + CC(C)C[C@H](NC(=O)[C@H](Cc1ccccc1)NC(=O)c1cnccn1)B(O)O [Bortezomib] (partner 0.002 µM): the relative viability with NCI-H1299 (first compound 0.08 µM) was determined as 1.06; in the test on NCI-H1299 (first compound 0.8 µM), 1.05; in the test with NCI-H1299 (first compound 2.53 µM), 1.07; in the test on NCI-H1299 (first compound 8 µM), 1.03; in the test on NCI-H1703 (first compound 0.08 µM), 0.26; in the test with NCI-H1703 (first compound 0.8 µM), 0.549. The relative viability in the test with NCI-H1703 (first compound 2.53 µM) was found to be 0.361; in the test with NCI-H1703 (first compound 8 µM) it was 0.236; in the test with Calu-6 (first compound 0.08 µM) it was 1.1; in the test on Calu-6 (first compound 0.8 µM), 1.03; with Calu-6 (first compound 2.53 µM) it was 0.966; in the test on Calu-6 (first compound 8 µM), 1.15.
As for `CCCCCCCCCCCC1=C(O)C(=O)C=C(O)C1=O` [Embelin] + CCNC(=O)c1noc(-c2cc(C(C)C)c(O)cc2O)c1-c1ccc(CN2CCOCC2)cc1 [Luminespib] (partner 0.01 µM), the relative viability in the test on NCI-H1623 (first compound 0.08 µM) turned out to be 0.577; in the test on NCI-H1623 (first compound 0.8 µM), 0.478; with NCI-H1623 (first compound 2.53 µM), 0.484; in the test on NCI-H1623 (first compound 8 µM) it was 0.452.
As to `CCCCCCCCCCCC1=C(O)C(=O)C=C(O)C1=O` [Embelin] + COc1cc2c(Oc3ccc(NC(=O)C4(C(=O)Nc5ccc(F)cc5)CC4)cc3F)ccnc2cc1OCCCN1CCOCC1 [Foretinib] (partner 0.25 µM), the relative viability in the test with NCI-H1299 (first compound 0.08 µM) was 1.08; with NCI-H1299 (first compound 0.8 µM), 1.11; in the test with NCI-H1299 (first compound 2.53 µM) it was 1.14; with NCI-H1299 (first compound 8 µM) it was 1.13; in the test on NCI-H1703 (first compound 0.08 µM), 0.413; with NCI-H1703 (first compound 0.8 µM), 0.404. Further, the relative viability turned out to be 0.392 in the test on NCI-H1703 (first compound 2.53 µM); 0.314 in the test with NCI-H1703 (first compound 8 µM); 0.86 with Calu-6 (first compound 0.08 µM); 1.01 in the test on Calu-6 (first compound 0.8 µM); 0.883 in the test on Calu-6 (first compound 2.53 µM); 1.03 in the test with Calu-6 (first compound 8 µM). Besides, the relative viability in the test on A549 (first compound 0.08 µM) turned out to be 0.906; with A549 (first compound 0.8 µM) it was 1.05; in the test on A549 (first compound 2.53 µM), 1.09; in the test on A549 (first compound 8 µM), 1.04; in the test with NCI-H1623 (first compound 0.08 µM), 0.889; with NCI-H1623 (first compound 0.8 µM) it was 0.872. In addition, the relative viability was found to be 0.876 in the test on NCI-H1623 (first compound 2.53 µM) and 0.853 with NCI-H1623 (first compound 8 µM).
For `CCCCCCCCCCCC1=C(O)C(=O)C=C(O)C1=O` [Embelin] + COc1cccc2cc(-c3nc([C@H]4CC[C@H](C(=O)O)CC4)n4ncnc(N)c34)[nH]c12 [OSI-027] (partner 0.5 µM), the relative viability in the test with NCI-H1648 (first compound 0.08 µM) was 0.263; with NCI-H1648 (first compound 0.8 µM) it was 0.293; in the test on NCI-H1648 (first compound 2.53 µM) it was 0.248; in the test on NCI-H1648 (first compound 8 µM) it was 0.278; with NCI-H1623 (first compound 0.08 µM), 0.486; in the test on NCI-H1623 (first compound 0.8 µM), 0.41. Further, the figures for the relative viability in the test with NCI-H1623 (first compound 2.53 µM) and in the test on NCI-H1623 (first compound 8 µM) were 0.468 and 0.494, respectively.
In the case of `CCCCCCCCCCCC1=C(O)C(=O)C=C(O)C1=O` [Embelin] + CS(=O)(=O)CCNCc1ccc(-c2ccc3ncnc(Nc4ccc(OCc5cccc(F)c5)c(Cl)c4)c3c2)o1 [Lapatinib] (partner 2 µM), the relative viability is 0.943 with NCI-H1299 (first compound 0.08 µM); 0.971 in the test on NCI-H1299 (first compound 0.8 µM); 0.991 in the test on NCI-H1299 (first compound 2.53 µM); 0.967 in the test with NCI-H1299 (first compound 8 µM); 1.2 in the test with NCI-H1703 (first compound 0.08 µM); 1.6 in the test with NCI-H1703 (first compound 0.8 µM). Moreover, the relative viability in the test on NCI-H1703 (first compound 2.53 µM) was determined as 1.02; in the test with NCI-H1703 (first compound 8 µM), 1.23; in the test with Calu-6 (first compound 0.08 µM), 1.03; in the test on Calu-6 (first compound 0.8 µM), 1.11; in the test on Calu-6 (first compound 2.53 µM), 1.08; with Calu-6 (first compound 8 µM) it was 1.14. In addition, the relative viability was 0.923 in the test on A549 (first compound 0.08 µM), 1.12 in the test on A549 (first compound 0.8 µM), 1.12 with A549 (first compound 2.53 µM) and 1.1 in the test with A549 (first compound 8 µM).
For the molecule `CCCCCCCCCCCC1=C(O)C(=O)C=C(O)C1=O` [Embelin] + CS(=O)(=O)N1CCN(Cc2cc3nc(-c4cccc5[nH]ncc45)nc(N4CCOCC4)c3s2)CC1 [Pictilisib] (partner 1 µM), the relative viability with NCI-H1299 (first compound 0.08 µM) is 0.873; with NCI-H1299 (first compound 0.8 µM), 0.832; with NCI-H1299 (first compound 2.53 µM) it was 0.784; in the test on NCI-H1299 (first compound 8 µM), 0.887; with NCI-H1703 (first compound 0.08 µM), 0.232; in the test with NCI-H1703 (first compound 0.8 µM), 0.315. Moreover, the relative viability with NCI-H1703 (first compound 2.53 µM) is 0.241; in the test on NCI-H1703 (first compound 8 µM), 0.232; in the test with Calu-6 (first compound 0.08 µM), 0.949; in the test on Calu-6 (first compound 0.8 µM) it was 1.12; in the test with Calu-6 (first compound 2.53 µM), 1.1; with Calu-6 (first compound 8 µM), 0.891. The relative viability with A549 (first compound 0.08 µM) amounted to 0.554; with A549 (first compound 0.8 µM), 0.596; in the test with A549 (first compound 2.53 µM), 0.53; in the test on A549 (first compound 8 µM), 0.527.
